PMC9578396, “Intrinsic Antibacterial Activity of Xeruborbactam In Vitro: Assessing Spectrum and Mode of Action” (Antimicrobial Agents and Chemotherapy, 2022)
≈ marks a conversion by molar mass, not a printed value. Like-named read-outs stand apart in the source and are kept apart here.

Tests used:
PBP1b = tested on: PBP1b; set-up: method as in earlier work; conditions: value in parentheses; A. baumannii ATCC 19606; cited from earlier work
PBP1a = biological target: T1, PBP1a (Pseudomonas aeruginosa, UniProt Q07806); set-up: method as in PMID 18250190; conditions: value in parentheses; P. aeruginosa PAO1; cited from earlier work
T1 construct: Five microliters of total bacterial membrane preparation was mixed with 5 μL of a test compound; endogenous in cells

PBP2 = biological target: T2, PBP2 (Acinetobacter baumannii, UniProt D0C8Z9); set-up: method as in earlier work; conditions: value in parentheses; A. baumannii ATCC 19606; cited from earlier work
T2 construct: Five microliters of total bacterial membrane preparation was mixed with 5 μL of a test compound; endogenous in cells
T2 sequence (D0C8Z9 1-672): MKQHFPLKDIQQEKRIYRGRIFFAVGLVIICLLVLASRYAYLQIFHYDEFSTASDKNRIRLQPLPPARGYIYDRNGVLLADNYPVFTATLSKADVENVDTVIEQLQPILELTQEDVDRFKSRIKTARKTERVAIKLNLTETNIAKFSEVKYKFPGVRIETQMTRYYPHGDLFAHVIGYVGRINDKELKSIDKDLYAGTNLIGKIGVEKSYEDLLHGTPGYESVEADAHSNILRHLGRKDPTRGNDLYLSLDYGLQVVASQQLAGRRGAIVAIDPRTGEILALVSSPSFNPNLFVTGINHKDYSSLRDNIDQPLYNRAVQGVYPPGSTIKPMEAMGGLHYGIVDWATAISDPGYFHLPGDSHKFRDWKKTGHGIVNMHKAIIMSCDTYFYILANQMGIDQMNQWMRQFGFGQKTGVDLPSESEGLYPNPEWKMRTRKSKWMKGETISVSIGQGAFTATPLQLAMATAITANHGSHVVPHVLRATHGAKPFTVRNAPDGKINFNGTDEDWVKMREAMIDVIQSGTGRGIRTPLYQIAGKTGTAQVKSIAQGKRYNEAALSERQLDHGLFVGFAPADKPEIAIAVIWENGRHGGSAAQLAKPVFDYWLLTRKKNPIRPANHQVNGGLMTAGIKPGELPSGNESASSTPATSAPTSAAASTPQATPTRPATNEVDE

PBP3 = PBP3 (Klebsiella pneumoniae, UniProt A0A0H3GN85); set-up: method as in PMID 29712652; conditions: read-out: IC50, PBP3; value in parentheses; K. pneumoniae ATCC 43816; cited from earlier work
[1] = tested on: K. pneumoniae strain KPM1026a
Method: Beta-lactamase-negative strains of E. coli (strain ECM5497), A. baumannii (strain AB1007), and K. pneumoniae (strain KPM1026a) were used in resistance development studies. […] Colonies were incubated for 24 h at 37°C before the frequency of resistance emergence was calculated as the ratio of the number of CFU grown on the xeruborbactam-containing plate over the number of CFU recorded for xeruborbactam-free plates. Single colonies from xeruborbactam-containing plates were grown twice on a nonselective medium before their antimicrobial-resistance levels were assessed. For K. pneumoniae KPM1026a, several independent cultures were used in resistance studies.

[2] = tested on: Enterobacter cloacae species complex; assay: Broth microdilution MIC (CLSI), Enterobacter cloacae; format: cell-based; conditions: for MIC: Enterobacter cloacae
Description: (§1) Bacterial isolates were subjected to broth microdilution susceptibility testing, performed according to Clinical and Laboratory Standards Institute (CLSI) methods ([46]), using panels prepared in-house. Meropenem was purchased from Sandoz, and all other antibiotics were from Sigma-Aldrich. Xeruborbactam was synthesized at Qpex Biopharma, San Diego, CA. Avibactam was purchased from eNovation Chemicals LLC, Bridgewater, NJ, USA; zidebactam was from MedKoo Biosciences, Inc., Morrisville, NC, and nacubactam was from Advanced ChemBlocks, Hayward, CA. Durlobactam was synthesized at Acme Bioscience, Palo Alto, CA, USA.

Other Enterobacterales = assay: Broth microdilution MIC (CLSI), other Enterobacterales; format: cell-based; conditions: 18 isolates
Description: as §1

[3] = tested on: major PBPs in total membrane preparations; assay: Bocillin FL competition PBP binding assay, probe incubation at 30°C; set-up: species or system E. coli, K. pneumoniae, A. baumannii, and P. aeruginosa; conditions: concentrations up to 300 μM; fluorescent probe incubation at 30°C
Method: Ten milliliters of overnight bacterial culture was inoculated in 1 L of LB medium and grown to an OD600 of 0.7 to 0.9. The cell pellet was washed once with 50 mL of solution containing 100 mM Na-phosphate at pH 7.0 and 100 mM NaCl and resuspended in 10 mL of the same buffer with one tablet of EDTA-free mini-protease inhibitor and 10 mg of lysozyme. Cell suspensions were incubated for 45 min at 37°C, and then 200 μL of DNase I was added along with MgSO4 (to a final concentration of 10 mM), followed by three cycles of freeze-thawing (10 min and 20 min, respectively). Four cycles of sonication at maximum power were performed next, each cycle lasting for 30 s with 1 min on ice between cycles. The cell suspension was centrifuged at 12,000 × g for 10 min at 4°C. The supernatant was collected and centrifuged at 100,000 × g for 45 min at 4°C. The pellet was washed three times with 10 mL of 100 mM Na-phosphate, pH 7.0, by resuspension and subsequent centrifugation at 100,000 × g for 10 min at 4°C. The pellet was finally resuspended in 1.5 mL of 100 mM Na-phosphate, pH 7.0, and passed several times through a Dounce homogenizer (tight pestle). […]
Five microliters of total bacterial membrane preparation was mixed with 5 μL of a test compound at a desired concentration in 100 mM Na-phosphate buffer, pH 7.0. […] IC50 values were calculated with Prism software (GraphPad).

[4] = tested on: strain AB1007 of A. baumannii; assay: Minimal bactericidal concentration (MBC), A. baumannii; format: cell-based; conditions: Acinetobacter baumannii
[5] = Enterobacter cloacae species complex, 45 isolates

T1 sequence (Q07806 whole entry): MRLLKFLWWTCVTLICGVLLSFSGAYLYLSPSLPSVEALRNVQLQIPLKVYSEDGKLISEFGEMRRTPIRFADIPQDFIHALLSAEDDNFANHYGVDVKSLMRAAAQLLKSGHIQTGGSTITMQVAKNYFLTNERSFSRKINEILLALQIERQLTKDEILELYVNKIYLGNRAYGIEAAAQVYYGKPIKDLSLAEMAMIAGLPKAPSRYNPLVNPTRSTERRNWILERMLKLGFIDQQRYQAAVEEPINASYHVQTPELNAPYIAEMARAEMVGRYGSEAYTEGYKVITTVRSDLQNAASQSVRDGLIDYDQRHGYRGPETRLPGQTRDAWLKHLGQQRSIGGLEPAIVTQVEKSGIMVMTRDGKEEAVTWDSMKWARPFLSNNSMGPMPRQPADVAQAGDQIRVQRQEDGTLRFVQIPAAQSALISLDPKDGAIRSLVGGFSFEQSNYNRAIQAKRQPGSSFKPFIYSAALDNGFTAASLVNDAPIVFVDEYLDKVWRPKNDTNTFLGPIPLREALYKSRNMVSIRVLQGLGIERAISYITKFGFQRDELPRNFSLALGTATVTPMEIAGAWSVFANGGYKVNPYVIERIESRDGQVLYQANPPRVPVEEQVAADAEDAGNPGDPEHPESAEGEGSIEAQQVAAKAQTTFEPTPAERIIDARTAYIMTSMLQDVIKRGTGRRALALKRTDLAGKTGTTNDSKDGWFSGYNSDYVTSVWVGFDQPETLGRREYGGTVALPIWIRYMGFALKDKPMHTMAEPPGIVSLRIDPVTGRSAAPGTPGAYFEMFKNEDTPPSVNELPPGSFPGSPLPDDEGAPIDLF
PBP3, sequence (A0A0H3GN85 entry or part of it): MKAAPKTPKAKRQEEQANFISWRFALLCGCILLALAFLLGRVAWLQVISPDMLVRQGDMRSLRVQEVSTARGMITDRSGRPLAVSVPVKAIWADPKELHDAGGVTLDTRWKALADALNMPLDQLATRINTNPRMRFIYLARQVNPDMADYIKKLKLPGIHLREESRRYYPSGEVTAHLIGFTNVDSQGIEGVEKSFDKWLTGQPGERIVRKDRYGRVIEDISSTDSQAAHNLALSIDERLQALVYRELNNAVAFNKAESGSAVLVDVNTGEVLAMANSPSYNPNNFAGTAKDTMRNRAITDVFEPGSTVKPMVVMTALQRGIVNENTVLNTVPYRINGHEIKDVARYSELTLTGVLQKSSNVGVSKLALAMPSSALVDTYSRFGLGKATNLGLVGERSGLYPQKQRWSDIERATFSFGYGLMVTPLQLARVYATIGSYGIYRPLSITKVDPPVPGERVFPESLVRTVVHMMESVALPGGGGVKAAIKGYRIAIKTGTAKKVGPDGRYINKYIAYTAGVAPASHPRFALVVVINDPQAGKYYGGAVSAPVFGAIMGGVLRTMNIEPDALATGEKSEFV

SMILES	IC50 (PBP1b) [nM]	IC50 (PBP1a) [nM]	IC50 (PBP2) [nM]	IC50 (PBP3) [nM]	frequency of resistance (FOR) ([1]; at 2× MIC)	frequency of resistance (FOR) ([1]; at 4× MIC)	MIC50 [2, 5] [µg/mL]	MIC90 [2, 5] [µg/mL]	MIC range [2, 5] [µg/mL]	MIC ([2]; Enterobacter cloacae species complex isolates, read-out: highest MIC observed) [µg/mL]	MIC ([2]; clinical isolate ECL1057, OmpK35 FN, OmpK36 NF, read-out: MIC) [µg/mL]	MIC ([2]; clinical isolate ECL1079, OmpK35 NF, OmpK36 NF, read-out: MIC) [µg/mL]	MIC ([2]; clinical isolate ECL1126, OmpK35 FN, OmpK36 FN, read-out: MIC) [µg/mL]	MIC ([2]; clinical isolate ECL1131, OmpK35 NF, OmpK36 FN, read-out: MIC) [µg/mL]	MIC50 (Other Enterobacterales) [µg/mL]	MIC90 (Other Enterobacterales) [µg/mL]	MIC range (Other Enterobacterales) [µg/mL]	interaction with PBPs [3]	MBC [4] [µg/mL]
C[C@@H](O)[C@H]1C(=O)N2C(C(=O)O)=C(S[C@@H]3CN[C@H](C(=O)N(C)C)C3)[C@H](C)[C@H]12 [Meropenem]	500	500	< 80	310															
O=C(O)c1c(F)ccc2c1OB(O)[C@@H]1C[C@H]21 [Xeruborbactam]					2 × 10^−8	< 3 × 10^−9	16 (≈ 72.1 µM)	32 (≈ 144 µM)	4 to 64	64 (≈ 288 µM)	64 (≈ 288 µM)	64 (≈ 288 µM)	16 (≈ 72.1 µM)	16 (≈ 72.1 µM)	16 (≈ 72.1 µM)	32 (≈ 144 µM)	8 to 64	No detectable interactions	16 (≈ 72.1 µM)
